Results from the NIST ThermoML archive (doi:10.1021/je0498053).
Numbers after ± are expanded uncertainties.

Key:
[1] = xn = mol fraction of the nth substance listed; details: 101.3 kPa, Liquid
[2] = 101.3 kPa, Liquid

CCCCN [1-butanamine] + CCCCC(C)O
[1], x1 = 1
Details	mass density [kg/m3]	viscosity [mPa·s]
303.15 K	732.1 ± 1.2	0.46 ± 0.03
313.15 K	722.9 ± 1.2	0.4 ± 0.02
323.15 K	712.7 ± 1.2	0.36 ± 0.02

CC(C)CC(C)O (centres undefined) [4-methyl-2-pentanol] + CCCCN
[1]
Details	mass density, 303.15 K [kg/m3]	mass density, 313.15 K [kg/m3]	mass density, 323.15 K [kg/m3]	viscosity, 303.15 K [mPa·s]	viscosity, 313.15 K [mPa·s]	viscosity, 323.15 K [mPa·s]
x2 = 0	799.3 ± 1	790.7 ± 1	782 ± 1	3.23 ± 0.15	2.24 ± 0.1	1.55 ± 0.07
x2 = 0.1	794.8 ± 1	787 ± 1	778.6 ± 1	2.61 ± 0.12	1.91 ± 0.09	1.4 ± 0.07
x2 = 0.2	790.7 ± 1	782.9 ± 1	774.5 ± 1	2.06 ± 0.1	1.57 ± 0.07	1.21 ± 0.06
x2 = 0.3	785.2 ± 1	777.3 ± 1	768.9 ± 1	1.66 ± 0.08	1.31 ± 0.06	1.02 ± 0.05
x2 = 0.3999	779.6 ± 1	771.5 ± 1	763 ± 1.1	1.35 ± 0.07	1.09 ± 0.05	0.87 ± 0.04
x2 = 0.5	772.8 ± 1	764.6 ± 1.1	755.9 ± 1.1	1.09 ± 0.05	0.91 ± 0.05	0.75 ± 0.04
x2 = 0.6	766 ± 1.1	757.5 ± 1.1	748.6 ± 1.1	0.92 ± 0.05	0.77 ± 0.04	0.64 ± 0.03
x2 = 0.6999	758 ± 1.1	749.4 ± 1.1	740.3 ± 1.1	0.77 ± 0.04	0.65 ± 0.03	0.54 ± 0.03
x2 = 0.7999	749.7 ± 1.1	740.9 ± 1.1	731.1 ± 1.2	0.64 ± 0.03	0.55 ± 0.03	0.47 ± 0.03
x2 = 0.9	740.8 ± 1.1	731.7 ± 1.2	721.7 ± 1.2	0.56 ± 0.03	0.48 ± 0.03	0.41 ± 0.02

CCCCN [1-butanamine] + CC(C)CC(C)O
[1], x1 = 1
Details	mass density [kg/m3]	viscosity [mPa·s]
303.15 K	732.1 ± 1.2	0.46 ± 0.03
313.15 K	722.9 ± 1.2	0.4 ± 0.02
323.15 K	712.7 ± 1.2	0.36 ± 0.02

CCCCC(C)O (centres undefined) [2-hexanol] + CCCCN
[1]
Details	mass density, 303.15 K [kg/m3]	mass density, 313.15 K [kg/m3]	mass density, 323.15 K [kg/m3]	viscosity, 303.15 K [mPa·s]	viscosity, 313.15 K [mPa·s]	viscosity, 323.15 K [mPa·s]
x2 = 0	806.4 ± 0.9	798.4 ± 1	790.1 ± 1	3.23 ± 0.15	2.29 ± 0.11	1.64 ± 0.08
x2 = 0.1	802 ± 1	794.2 ± 1	786 ± 1	2.67 ± 0.12	1.97 ± 0.09	1.45 ± 0.07
x2 = 0.2	796.7 ± 1	788.9 ± 1	780.6 ± 1	2.19 ± 0.1	1.68 ± 0.08	1.26 ± 0.06
x2 = 0.3	791.5 ± 1	783.7 ± 1	775.3 ± 1	1.78 ± 0.08	1.4 ± 0.07	1.1 ± 0.05
x2 = 0.4	785 ± 1	776.9 ± 1	768.5 ± 1	1.47 ± 0.07	1.17 ± 0.06	0.93 ± 0.05
x2 = 0.5	777.7 ± 1	769.4 ± 1	760.8 ± 1.1	1.2 ± 0.06	0.98 ± 0.05	0.79 ± 0.04
x2 = 0.6	769.8 ± 1	761.4 ± 1.1	751.1 ± 1.1	0.97 ± 0.05	0.81 ± 0.04	0.67 ± 0.04
x2 = 0.6999	760.7 ± 1.1	752.1 ± 1.1	741.6 ± 1.1	0.79 ± 0.04	0.68 ± 0.04	0.57 ± 0.03
x2 = 0.8	751.3 ± 1.1	742.7 ± 1.1	732.4 ± 1.1	0.65 ± 0.03	0.56 ± 0.03	0.47 ± 0.03
x2 = 0.9	742.1 ± 1.1	732.9 ± 1.1	722.9 ± 1.2	0.53 ± 0.03	0.47 ± 0.03	0.4 ± 0.02

CCCCN [1-butanamine]
[2]
Details	mass density [kg/m3]	viscosity [mPa·s]
303.15 K	732.1 ± 1.2	0.46 ± 0.03
313.15 K	722.9 ± 1.2	0.4 ± 0.02
323.15 K	712.7 ± 1.2	0.36 ± 0.02

CCCCC(C)O (centres undefined) [2-hexanol]
[2]
Details	mass density [kg/m3]	viscosity [mPa·s]
303.15 K	806.4 ± 0.9	3.23 ± 0.15
313.15 K	798.4 ± 1	2.29 ± 0.11
323.15 K	790.1 ± 1	1.64 ± 0.08

CCCC(C)CO (centres undefined) [2-methyl-1-pentanol] + CCCCN
[1]
Details	mass density, 303.15 K [kg/m3]	mass density, 313.15 K [kg/m3]	mass density, 323.15 K [kg/m3]	viscosity, 303.15 K [mPa·s]	viscosity, 313.15 K [mPa·s]	viscosity, 323.15 K [mPa·s]
x2 = 0	816.8 ± 1.2	809.5 ± 1.2	801.5 ± 1.2	4.55 ± 0.21	3.18 ± 0.15	2.25 ± 0.11
x2 = 0.1	810.3 ± 1.2	803 ± 1.2	795.3 ± 1.2	3.38 ± 0.16	2.51 ± 0.12	1.85 ± 0.09
x2 = 0.2	804.8 ± 1.1	797.4 ± 1.1	789.6 ± 1.2	2.67 ± 0.12	2.06 ± 0.1	1.57 ± 0.08
x2 = 0.2999	798.2 ± 1.1	790.6 ± 1.1	782.6 ± 1.2	2.1 ± 0.1	1.65 ± 0.08	1.32 ± 0.06
x2 = 0.4	791 ± 1.1	783.2 ± 1.1	775 ± 1.1	1.67 ± 0.08	1.35 ± 0.07	1.08 ± 0.05
x2 = 0.5	783.6 ± 1.1	775.7 ± 1.1	767.2 ± 1.1	1.37 ± 0.07	1.11 ± 0.06	0.91 ± 0.05
x2 = 0.6	774.5 ± 1.1	766.3 ± 1.1	757.7 ± 1.1	1.1 ± 0.05	0.9 ± 0.05	0.75 ± 0.04
x2 = 0.6999	764.7 ± 1.1	756.2 ± 1.1	747.4 ± 1.2	0.89 ± 0.05	0.72 ± 0.04	0.6 ± 0.03
x2 = 0.8	753.9 ± 1.1	745.2 ± 1.1	736.1 ± 1.2	0.69 ± 0.04	0.59 ± 0.03	0.5 ± 0.03
x2 = 0.8999	742.9 ± 1.1	734.5 ± 1.2	724.3 ± 1.2	0.54 ± 0.03	0.48 ± 0.03	0.42 ± 0.03

CC(C)CC(C)O (centres undefined) [4-methyl-2-pentanol]
[2]
Details	mass density [kg/m3]	viscosity [mPa·s]
303.15 K	799.3 ± 1	3.23 ± 0.15
313.15 K	790.7 ± 1	2.24 ± 0.1
323.15 K	782 ± 1	1.55 ± 0.07

CCCC(O)CC (centres undefined) [3-hexanol]
[2]
Details	mass density [kg/m3]	viscosity [mPa·s]
303.15 K	810.2 ± 1.2	3.52 ± 0.16
313.15 K	801.7 ± 1.2	2.34 ± 0.11
323.15 K	792.8 ± 1.2	1.58 ± 0.08

CCCC(C)(C)O [2-methyl-2-pentanol] + CCCCN
[1]
Details	mass density, 303.15 K [kg/m3]	mass density, 313.15 K [kg/m3]	mass density, 323.15 K [kg/m3]	viscosity, 303.15 K [mPa·s]	viscosity, 313.15 K [mPa·s]	viscosity, 323.15 K [mPa·s]
x2 = 0	810.8 ± 0.9	802.4 ± 1	793.5 ± 1	2.93 ± 0.13	2.06 ± 0.1	1.46 ± 0.07
x2 = 0.1	806.7 ± 0.9	798.2 ± 1	789.2 ± 1	2.62 ± 0.12	1.88 ± 0.09	1.34 ± 0.06
x2 = 0.2	801.5 ± 1	793.1 ± 1	784 ± 1	2.25 ± 0.1	1.66 ± 0.08	1.2 ± 0.06
x2 = 0.3	795.7 ± 1	787.2 ± 1	778.2 ± 1	1.86 ± 0.09	1.41 ± 0.07	1.04 ± 0.05
x2 = 0.4	788.8 ± 1	780.2 ± 1	771.2 ± 1	1.55 ± 0.07	1.2 ± 0.06	0.92 ± 0.05
x2 = 0.4999	781.4 ± 1	772.8 ± 1	763.7 ± 1.1	1.26 ± 0.06	1 ± 0.05	0.79 ± 0.04
x2 = 0.5999	772.9 ± 1	764.2 ± 1.1	754.7 ± 1.1	1.01 ± 0.05	0.83 ± 0.04	0.67 ± 0.04
x2 = 0.7	763.8 ± 1.1	755 ± 1.1	745.1 ± 1.1	0.82 ± 0.04	0.69 ± 0.04	0.57 ± 0.03
x2 = 0.8	753.4 ± 1.1	744.3 ± 1.1	734.3 ± 1.1	0.66 ± 0.04	0.57 ± 0.03	0.48 ± 0.03
x2 = 0.9	742.4 ± 1.1	733.3 ± 1.1	723.6 ± 1.2	0.54 ± 0.03	0.47 ± 0.03	0.41 ± 0.02

CCCC(O)CC (centres undefined) [3-hexanol] + CCCCN
[1]
Details	mass density, 303.15 K [kg/m3]	mass density, 313.15 K [kg/m3]	mass density, 323.15 K [kg/m3]	viscosity, 303.15 K [mPa·s]	viscosity, 313.15 K [mPa·s]	viscosity, 323.15 K [mPa·s]
x2 = 0	810.2 ± 1.2	801.7 ± 1.2	792.8 ± 1.2	3.52 ± 0.16	2.34 ± 0.11	1.58 ± 0.08
x2 = 0.1	806.4 ± 1.2	798.4 ± 1.2	789.8 ± 1.2	2.85 ± 0.13	2.2 ± 0.1	1.44 ± 0.07
x2 = 0.2	801.4 ± 1.1	793.5 ± 1.2	785 ± 1.2	2.26 ± 0.11	1.79 ± 0.09	1.24 ± 0.06
x2 = 0.3	795.6 ± 1.1	787.5 ± 1.1	776.9 ± 1.2	1.78 ± 0.08	1.39 ± 0.07	1.07 ± 0.05
x2 = 0.3999	788.6 ± 1.1	780.5 ± 1.1	770 ± 1.2	1.41 ± 0.07	1.09 ± 0.05	0.91 ± 0.05
x2 = 0.5	780.4 ± 1.1	772 ± 1.1	763.2 ± 1.1	1.13 ± 0.06	0.89 ± 0.05	0.76 ± 0.04
x2 = 0.5999	772 ± 1.1	763.5 ± 1.1	754.5 ± 1.2	0.92 ± 0.05	0.78 ± 0.04	0.65 ± 0.04
x2 = 0.7	762.9 ± 1.1	754.1 ± 1.1	745.2 ± 1.2	0.76 ± 0.04	0.68 ± 0.04	0.55 ± 0.03
x2 = 0.7999	753 ± 1.1	743.6 ± 1.1	734.4 ± 1.2	0.65 ± 0.03	0.58 ± 0.03	0.48 ± 0.03
x2 = 0.9	742 ± 1.1	732.7 ± 1.2	723.2 ± 1.2	0.54 ± 0.03	0.46 ± 0.03	0.4 ± 0.02

CCCCN [1-butanamine] + CCCC(O)CC
[1], x1 = 1
Details	mass density [kg/m3]	viscosity [mPa·s]
303.15 K	732.1 ± 1.2	0.46 ± 0.03
313.15 K	722.9 ± 1.2	0.4 ± 0.02
323.15 K	712.7 ± 1.2	0.36 ± 0.02

CCCCN [1-butanamine] + CCCC(C)CO
[1], x1 = 1
Details	mass density [kg/m3]	viscosity [mPa·s]
303.15 K	732.1 ± 1.2	0.46 ± 0.03
313.15 K	722.9 ± 1.2	0.4 ± 0.02
323.15 K	712.7 ± 1.2	0.36 ± 0.02

CCCCN [1-butanamine] + CCCC(C)(C)O
[1], x1 = 1
Details	mass density [kg/m3]	viscosity [mPa·s]
303.15 K	732.1 ± 1.2	0.46 ± 0.03
313.15 K	722.9 ± 1.2	0.4 ± 0.02
323.15 K	712.7 ± 1.2	0.36 ± 0.02
